Experimental data taken from US9783499B2, “Quinoline derivatives and their applications” (Shenyang Pharmaceutical University, priority 2012, dated 2017).
Values after ≈ are worked out from the molar mass of the structure shown.

How the values were obtained:
Assay type in all cases: cell-based
[1] = system: H460 (human lung cancer cell); assay: In vitro anti-tumor cellular activity (MTT), H460; conditions: for H460 IC50: 72 hours; for IC50: Homo sapiens, NCI-H460, 72 hours
Experimental: (§1) After pouring the cell dissociation buffer to the centrifugetube, nutrient solution was added to stop digestion. The centrifugetube were centrifuged for 10 min under 800 r/min, the liquid supernatant was removed, 5 mL culture solution was added, after mixing by pipetting the cell, took 10 μL cell suspension to the cell counting plat, and adjusted the cell concentration to 10^4/well. Among the 96 wells, A1 is empty, 100 μL of cell suspension were added to the other wells. The 96 well plates were incubated in the incubator for 24 h. […] The 96-well plates were placed in an incubator and cultivated for 72 hours. (3) The culture media containing the compounds in the 96-well plates was discarded, and the cells were washed with phosphate buffered solution (PBS) twice. Each well was added with 100 μL MTT (tetrazole) (0.5 mg/mL), and then placed in an incubator to incubate for 4 hours, after which MTT solution was discarded and 100 μL dimethyl sulfoxide was added thereto.

[2] = system: MKN-45 (human gastric carcinoma cell); assay: In vitro anti-tumor cellular activity (MTT), MKN-45; conditions: 72 hours; for IC50: Homo sapiens
Experimental: as §1

[3] = system: MDA-MB-231 (human beast cancer cell); assay: In vitro anti-tumor cellular activity (MTT), MDA-MB-231; conditions: 72 hours; for IC50: Homo sapiens
Experimental: as §1

[4] = system: U87MG (Human malignant glioblastoma cell); assay: In vitro anti-tumor cellular activity (MTT), U87MG; conditions: 72 hours; for IC50: Homo sapiens, U-87 MG
Experimental: as §1

[5] = system: SMMC-7721 (hepatoma cell); assay: In vitro anti-tumor cellular activity (MTT), SMMC-7721; conditions: 72 hours; for IC50: Homo sapiens
Experimental: as §1

[6] = system: HT-29 (colon cancer cell); assay: In vitro anti-tumor cellular activity (MTT), HT-29; conditions: 72 hours; for IC50: Homo sapiens
Experimental: as §1

Molecule | H460 IC50 [1] [µg/mL] | MKN-45 IC50 [2] [µg/mL] | MDA-MB-231 IC50 [3] [µg/mL] | U87MG IC50 [4] [µg/mL] | SMMC-7721 IC50 [5] [µg/mL] | HT-29 IC50 [6] [µg/mL] | IC50 [1] [µg/mL] | IC50 [2] [µg/mL] | IC50 [3] [µg/mL] | IC50 [4] [µg/mL] | IC50 [5] [µg/mL] | IC50 [6] [µg/mL]
COc1cc2c(Oc3ccc(NC(=O)N/N=C/c4ccccc4)cc3F)ccnc2cc1OCCCN1CCOCC1 [Example 3, (E)-N^1-(3-fluoro-4-(6-methoxy-7-(3-(morpholin-4-yl)propoxy)quinoline-4-yloxy)phenyl)-N^4-(benzaldehyde)semicarbazone] | 0.11 | 0.12 | 0.13 | 0.33 | 2.1 | 0.42 |  |  |  |  |  | 
COc1cc2c(Oc3ccc(NC(=O)NN=Cc4ccc(Cl)cc4Cl)cc3F)ccnc2cc1OCCCN1CCOCC1 [Example 20, (E)-N^1-(3-fluoro-4-(6-methoxy-7-(3-(morpholin-4-yl)propoxy)quinoline-4-yloxy)phenyl)-N^4-(2,4-dichlorobenzaldehyde)semicarbazone] | 1.1 | 1.5 | 1.7 | 4.2 | 6.7 | 0.84 |  |  |  |  |  | 
COc1cc2c(Oc3ccc(NC(=S)N/N=C/c4ccccc4)cc3F)ccnc2cc1OCCCN1CCC(C)CC1 [Example 37, (E)-N^1-(3-fluoro-4-(6-methoxy-7-(3-(4-methylpiperidin-1-yl)propoxy)quinoline-4-yloxy)phenyl)-N^4-(benzaldehyde)thiosemicarbazone] | 0.089 | 0.56 | 0.13 | 0.50 | 0.43 | 0.13 |  |  |  |  |  | 
COc1cc2c(Oc3ccc(C=NNC(=O)Nc4ccc(Cl)c(C(F)(F)F)c4)cc3F)ccnc2cc1OCCCN1CCCCC1 [Example 46] | 0.33 | 0.23 | 0.25 | 1.2 | 0.69 | 0.45 |  |  |  |  |  | 
COc1cc2c(Oc3ccc(N(/N=C/c4ccc(F)cc4)C(N)=S)cc3F)ccnc2cc1OCCCN1CCOCC1 [Example 45, (E)-N^1-(3-fluoro-4-(6-methoxy-7-(3-(morpholin-4-yl)propoxy)quinoline-4-yloxy)phenyl)-N^4-(4-fluorobenzaldehyde)thiosemicarbazone] |  |  |  |  |  |  | 0.11 (≈ 0.181 µM) | 0.37 (≈ 0.609 µM) | 0.17 (≈ 0.28 µM) | 0.9 (≈ 1.48 µM) | 1 (≈ 1.65 µM) | 0.19 (≈ 0.313 µM)
COc1cc2c(Oc3ccc(NC(=O)N/N=C/c4ccccc4)cc3F)ccnc2cc1OCCCN1CCN(C)CC1 [Example 4, (E)-N^1-(3-fluoro-4-(6-methoxy-7-(3-(4-methylpiperazin-1-yl)propoxy)quinoline-4-lyoxy)phenyl)-N^4-(benzaldehyde)semicarbazone] | 0.084 | 0.11 | 0.066 | 0.25 | 0.23 | 0.093 |  |  |  |  |  | 
COc1cc2c(Oc3ccc(NC(=O)N/N=C/c4ccc(F)cc4)cc3F)ccnc2cc1OCCCN1CCC(C)CC1 [Example 10, (E)-N^1-(3-fluoro-4-(6-methoxy-7-(3-(4-methylpiperidin-1-yl)propoxy)quinoline-4-lyoxy)phenyl)-N^4-(4-fluorobenzaldehyde)semicarbazone] | 0.0092 | 0.038 | 0.011 | 0.019 | 0.16 | 0.0015 |  |  |  |  |  | 
COc1cc2c(Oc3ccc(NC(=O)N/N=C(\C)c4ccccc4)cc3F)ccnc2cc1OCCCN1CCCCC1 [Example 17, (E)-N^1-(3-fluoro-4-(6-methoxy-7-(3-(piperidin-1-yl)propoxy)quinoline-4-yloxy)phenyl)-N^4-(acetophenone)semicarbazone] | 0.069 | 0.072 | 0.071 | 0.24 | 0.13 | 0.0057 |  |  |  |  |  | 
(E)-N^1-(3-fluoro-4-(6-methoxy-7-(3-(4-methylpiperidin-1-yl)propoxy)quinoline-4-yloxy)phenyl)-N^4-(2-chloro-4-fluorobenzaldehyde)semicarbazone [Example 13] | 0.097 | 0.27 | 0.16 | 0.33 | 0.29 | 0.16 |  |  |  |  |  | 
COc1cc2c(Oc3ccc(N(/N=C/c4cc(C)c(O)c(C)c4)C(N)=O)cc3F)ccnc2cc1OCCCN1CCOCC1 [Example 27, (E)-N^1-(3-fluoro-4-(6-methoxy-7-(3-(morpholin-4-yl)propoxy)quinoline-4-yloxy)phenyl)-N^4-(3,5-dimethyl-4-hydroxybenzaldehyde)semicarbazone] |  |  |  |  |  |  | 1.3 (≈ 2.1 µM) | 0.2 (≈ 0.324 µM) | 0.96 (≈ 1.55 µM) | 1.4 (≈ 2.27 µM) | 0.53 (≈ 0.858 µM) | 0.59 (≈ 0.955 µM)
COc1cc2c(Oc3ccc(NC(=O)N/N=C/c4ccc(F)c(F)c4)cc3F)ccnc2cc1OCCCN1CCCC1 [Example 22, (E)-N^1-(3-fluoro-4-(6-methoxy-7-(3-(pyrrolidin-1-yl)propoxy)quinoline-4-lyoxy)phenyl)-N^4-(3,4-difluorobenzaldehyde)semicarbazone] | 0.29 | 0.37 | 0.31 | 0.66 | 1.2 | 0.19 |  |  |  |  |  | 
COc1cc2c(Oc3ccc(N(/N=C/c4c(O)ccc5ccccc45)C(N)=O)cc3F)ccnc2cc1OCCCN1CCC(C)CC1 [Example 21, (E)-N^1-(3-fluoro-4-(6-methoxy-7-(3-(4-methylpiperidin-1-yl)propoxy)quinoline-4-yloxy)phenyl)-N^4-(2-hydroxy-1-naphthaldehyde)semicarbazone] |  |  |  |  |  |  | 0.16 (≈ 0.245 µM) | 0.1 (≈ 0.153 µM) | 0.087 (≈ 0.133 µM) | 0.89 (≈ 1.37 µM) | 0.98 (≈ 1.5 µM) | 0.065 (≈ 0.0997 µM)
(E)-N^1-(3,5-dichlorophenyl)-N^4-(3-fluoro-4-(6-methoxy-7-(3-(piperidin-1-yl)propoxy)quinolin-4-yloxy)benzylidene)thiosemicarbazide [Example 61] | 0.054 | 0.15 | 0.092 | 0.21 | 0.22 | 0.076 |  |  |  |  |  | 
COc1cc2c(Oc3ccc(NC(=O)N/N=C/c4ccccc4)cc3F)ccnc2cc1OCCCN1CCC(C)CC1 [Example 2, (E)-N^1-(3-fluoro-4-(6-methoxy-7-(3-(4-methylpiperidin-1-yl)propoxy)quinoline-4-yloxy)phenyl)-N^4-(benzaldehyde)semicarbazone] | 0.15 | 0.18 | 0.12 | 0.31 | 0.43 | 0.17 |  |  |  |  |  | 
COc1cc2c(Oc3ccc(NC(=S)N/N=C/c4ccccc4)cc3F)ccnc2cc1OCCCN1CCN(C)CC1 [Example 39, (E)-N^1-(3-fluoro-4-(6-methoxy-7-(3-(4-methyl-1-piperazinyl)propoxy)quinoline-4-yloxy)phenyl)-N^4-(benzaldehyde)thiosemicarbazone] | 1.1 | 0.59 | 0.97 | 1.6 | 1.7 | 0.94 |  |  |  |  |  | 
(E)-N^1-(3-fluoro-4-(6-methoxy-7-(3-(piperidin-1-yl)propoxy)quinoline-4-yloxy)phenyl)-N^4-(2,4-dichlorobenzaldehyde)thiosemicarbazone [Example 41] | 0.097 | 0.10 | 0.088 | 0.54 | 0.66 | 0.13 |  |  |  |  |  | 
